{"source": "patent US20050042716A1", "about": "“Allergen inactivating method, allergen inactivating filter, air treating apparatus, virus inactivating agent, virus inactivating method, virus inactivating filter, air conditoning unit and air conditioner” (priority 2003, published 2005)", "key": {"[1]": {"test_system": "M13 phage", "assay": "Inactivation test of M13 phage in solution (plaque count on E. coli JM109)", "type": "cell-based", "conditions": "9 M urea, 1 hour", "method": "This solution was added in the 1.5 mL volume tube to prepare a protease treatment solution. […] This solution was added in the 1.5 mL volume tube to prepare an urea treatment solution. […] This solution was added in the 1.5 mL volume tube to prepare an urea/protease treatment solution. Each solution was incubated at 37° C. for 1 hour. After the incubation, 600 μL of PEG solution (20% PEG6000, 2.5M NaCl) was added, and the solution was allowed to stand in ice for 3 hours. […] After incubating the medium at 37° C. for 5 hours, the number of the plaques appeared was counted to determine pfu. […] Into this solution in the 1.5 mL volume tube, 0, 0.08, 0.8 and 8 μL each of pfu protease (manufactured by Takara Bio Co.) solution was added. […] Into this solution in the 1.5 mL volume tube, 0, 0.08, 0.8 and 8 μL each of pfu protease (manufactured by Takara Bio Co.) solution was added. […] Each treatment solution was incubated at 37° C. for 1 hour. After the incubation, 600 μL of PEG solution (20% PEG6000, 2.5M NaCl) was added, and the solution was allowed to stand in ice for 3 hours. […] After incubating the medium at 37° C. for 5 hours, the number of the plaques appeared was counted to determine pfu. […] After the incubation, 600 μL of PEG solution (20% PEG, 2.5M NaCl) was added, and the solution was allowed to stand in ice for 3 hours. […] After incubating the medium at 37° C. for 5 hours, the number of the plaques appeared was counted to determine pfu for evaluating the infection ability. The inactivation ratio of M13 phage was calculated from the results in Table 10, and is shown in the graph in FIG."}, "[2]": {"test_system": "λ-phage", "assay": "Inactivation test of λ-phage in solution (plaque count on E. coli XL1-Blue MRF′)", "type": "cell-based"}, "[3]": {"test_system": "mite allergen", "assay": "Mite allergen inactivation in mite extract, detected with DaniScan", "type": "biochemical"}, "[4]": {"target": "Cj-1 allergen (Cryptomeria japonica, UniProt P18632)", "sequence (P18632 22-374)": "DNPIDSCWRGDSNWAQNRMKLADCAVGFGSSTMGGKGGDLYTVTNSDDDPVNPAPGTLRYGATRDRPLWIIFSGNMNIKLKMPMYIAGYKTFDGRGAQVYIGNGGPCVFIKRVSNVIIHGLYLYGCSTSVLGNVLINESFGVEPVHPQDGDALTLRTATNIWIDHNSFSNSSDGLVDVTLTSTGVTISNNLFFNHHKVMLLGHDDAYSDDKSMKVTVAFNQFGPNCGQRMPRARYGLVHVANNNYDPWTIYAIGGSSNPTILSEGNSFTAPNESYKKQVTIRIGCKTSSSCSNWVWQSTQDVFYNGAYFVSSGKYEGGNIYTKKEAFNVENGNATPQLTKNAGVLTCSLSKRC", "assay": "Electrophoresis and Western blotting with Cj-1 antibody", "type": "biochemical, cedar", "conditions": "for denaturation of Cj-1 protein (Western band): 5 N HCl, 60° C., 60 minutes"}, "[5]": {"target": "cedar antigen Cryj-1 (Cryptomeria japonica, UniProt P18632)", "sequence (P18632 22-374)": "as above", "assay": "Electrophoresis of treated cedar antigen Cryj-1", "type": "biochemical", "conditions": "10 μL 5 N HCL per 10 μL Cj-1 solution, 60° C., 60 minutes"}, "[6]": {"target": "cedar antigen Cryj-2 (Cryptomeria japonica, UniProt P43212)", "sequence (P43212 46-433)": "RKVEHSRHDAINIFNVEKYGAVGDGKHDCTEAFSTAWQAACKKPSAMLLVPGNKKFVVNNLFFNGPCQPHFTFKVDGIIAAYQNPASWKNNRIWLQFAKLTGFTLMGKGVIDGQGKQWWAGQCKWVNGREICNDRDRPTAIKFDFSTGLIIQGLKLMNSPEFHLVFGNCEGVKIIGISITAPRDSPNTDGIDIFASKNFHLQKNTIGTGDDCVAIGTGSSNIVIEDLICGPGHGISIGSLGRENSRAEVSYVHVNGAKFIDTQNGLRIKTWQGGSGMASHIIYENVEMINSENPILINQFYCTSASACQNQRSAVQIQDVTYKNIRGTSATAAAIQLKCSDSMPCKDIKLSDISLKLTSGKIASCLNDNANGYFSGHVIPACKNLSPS", "assay": "Electrophoresis of treated cedar antigen Cryj-2", "type": "biochemical", "conditions": "10 μL 5 N HCL per 10 μL Cj-2 solution, 60° C., 60 minutes"}, "[7]": {"test_system": "cedar extract", "assay": "Electrophoresis of treated cedar extract (protein staining)", "type": "biochemical"}, "[8]": {"conditions": "37° C., 1 hour, pfu protease S final 2%, 9 M urea"}}, "data": [{"molecule": "NC(N)=O", "note": "[Urea, urea]", "values": [{"measurement": "inactivation ratio of M13 phage", "setting": "[1]; 37° C.", "value": "about 50%"}, {"measurement": "Infection ability of M13 phage", "setting": "[1]; protease concentration 0, 37° C.", "value": "6.3 × 10^9"}, {"measurement": "Infection ability of M13 phage", "setting": "[1]; 37° C., pfu protease S final 2%", "value": "1.1 × 10^10 pfu/mL"}, {"measurement": "Infection ability of λ-phage", "setting": "[2]; 3 M urea, 37° C., treatment time 0 min", "value": "9.4 × 10^7 pfu/ml"}, {"measurement": "Infection ability of λ-phage", "setting": "[2]; 3 M urea, 37° C., treatment time 15 min", "value": "1.5 × 10^8 pfu/ml"}, {"measurement": "Infection ability of λ-phage", "setting": "[2]; 3 M urea, 37° C., treatment time 60 min", "value": "1.1 × 10^8 pfu/ml"}, {"measurement": "inactivation of λ-phage (in words)", "setting": "[2]; 3 M urea, irrespective of the treatment time", "value": "not substantially inactivated"}, {"measurement": "Infection ability of λ-phage", "setting": "[2]; 9 M urea, 37° C., treatment time 0 min", "value": "4 × 10^6 pfu/ml"}, {"measurement": "Infection ability of λ-phage by adding 9 M urea", "setting": "[2]; 9 M urea, 37° C., treatment time 0 min (Table 6)", "value": "8.4 × 10^5 pfu/mL"}, {"measurement": "Infection ability of λ-phage by adding 9 M urea", "setting": "[2]; 9 M urea, 37° C., treatment time 7.5 min", "value": 0, "unit": "pfu/mL"}, {"measurement": "Infection ability of λ-phage", "setting": "[2]; 9 M urea, 37° C., treatment time 15 min", "value": 0, "unit": "pfu/ml"}, {"measurement": "Infection ability of λ-phage by adding 9 M urea", "setting": "[2]; 9 M urea, 37° C., treatment time 15 min (Table 6)", "value": 0, "unit": "pfu/mL"}, {"measurement": "Infection ability of λ-phage by adding 9 M urea", "setting": "[2]; 9 M urea, 37° C., treatment time 30 min", "value": 0, "unit": "pfu/mL"}, {"measurement": "Infection ability of λ-phage", "setting": "[2]; 9 M urea, 37° C., treatment time 60 min", "value": 0, "unit": "pfu/ml"}, {"measurement": "Infection ability of λ-phage by adding 9 M urea", "setting": "[2]; 9 M urea, 37° C., treatment time 60 min (Table 6)", "value": 0, "unit": "pfu/mL"}, {"measurement": "inactivation of λ-phage (in words)", "setting": "[2]; 9 M urea, treatment time of 15 minutes or more", "value": "completely inactivated"}, {"measurement": "Infection ability of λ-phage", "setting": "[2]; [8]", "value": 0, "unit": "pfu/mL"}, {"measurement": "inactivation of λ-phage (in words)", "setting": "[2]; [8]", "value": "inactivated"}, {"measurement": "inactivation ratio of λ-phage", "setting": "[2]; immediately after contacting 9 M urea", "value": "about 99.96%"}]}, {"molecule": "Cl", "note": "[acid, hydrochloric acid]", "values": [{"measurement": "mite allergen inactivation (DaniScan band)", "setting": "[3]; 2.5 M hydrochloric acid, 60° C., 60 minutes", "value": "most of the allergen is inactivated"}, {"measurement": "denaturation of Cj-1 protein (Western band)", "setting": "[4]; Cj-1 solution", "value": "most of the cedar antigen Cj-1 protein was denatured"}, {"measurement": "denaturation of Cj-1 protein (Western band)", "setting": "[4]; cedar extract", "value": "most of the cedar antigen Cj-1 protein was denatured"}, {"measurement": "denaturation of Cj-1 protein (bands)", "setting": "[5]", "value": "most of the cedar allergen Cj-1 protein was denatured"}, {"measurement": "denaturation of Cj-2 protein (bands)", "setting": "[6]", "value": "most of the cedar allergen Cj-2 protein was denatured"}, {"measurement": "denaturation of cedar proteins (bands)", "setting": "[7]; 10 μL 5 N HCL per 10 μL cedar preparation, 60° C., 60 minutes", "value": "most of the proteins derived from cedar was denatured"}]}, {"molecule": "[Na+].[OH-]", "note": "[alkali, sodium hydroxide]", "values": [{"measurement": "mite allergen inactivation (DaniScan band)", "setting": "[3]; 2.5 M sodium hydroxide, 40° C. and 60° C., 10 minutes", "value": "inactivated"}]}, {"molecule": "papain: purified edible papain manufactured by Nagase Chemtechs Co. (protein, UniProt P00784 134-345, looked up) Papain: IPEYVDWRQKGAVTPVKNQGSCGSCWAFSAVVTIEGIIKIRTGNLNEYSEQELLDCDRRSYGCNGGYPWSALQLVAQYGIHYRNTYPYEGVQRYCRSREKGPYAAKTDGVRQVQPYNEGALLYSIANQPVSVVLEAAGKDFQLYRGGIFVGPCGNKVDHAVAAVGYGPNYILIKNSWGTGWGENGYIRIKRGTGNSYGVCGLYTSSFYPVKN", "values": [{"measurement": "inactivation of Cj-1 allergen (Western band)", "setting": "[4]; cedar extract, 3 μL (0.2 g/mL) papain, 40° C., 15 minutes", "value": "completely inactivated"}, {"measurement": "decomposition of cedar proteins (bands)", "setting": "[7]; 3 μL (0.2 g/mL) papain solution, 40° C., 15 minutes", "value": "most of the cedar proteins had been decomposed"}]}]}
